The text below walks through data of ChEMBL document CHEMBL1909046, “DrugMatrix in vitro pharmacology data”.

A short description of data set [1]: DRUGMATRIX: Phosphodiesterase PDE3 enzyme inhibition (substrate: [3H]cAMP + cAMP). The note with it: platelet; Not Active = under 50% inhibition at 10 µM. It counts as tissue-based, Homo sapiens.
The target of another data set is D(3) dopamine receptor (Homo sapiens, UniProt P35462). In words: DRUGMATRIX: Dopamine D3 radioligand binding (ligand: [3H] Spiperone). Type of data set: cell membranes, CHO, Membrane.
Data set [2] addresses T1, Receptor-type tyrosine-protein phosphatase C (Homo sapiens, UniProt P08575).
T1 sequence (P08575 whole entry): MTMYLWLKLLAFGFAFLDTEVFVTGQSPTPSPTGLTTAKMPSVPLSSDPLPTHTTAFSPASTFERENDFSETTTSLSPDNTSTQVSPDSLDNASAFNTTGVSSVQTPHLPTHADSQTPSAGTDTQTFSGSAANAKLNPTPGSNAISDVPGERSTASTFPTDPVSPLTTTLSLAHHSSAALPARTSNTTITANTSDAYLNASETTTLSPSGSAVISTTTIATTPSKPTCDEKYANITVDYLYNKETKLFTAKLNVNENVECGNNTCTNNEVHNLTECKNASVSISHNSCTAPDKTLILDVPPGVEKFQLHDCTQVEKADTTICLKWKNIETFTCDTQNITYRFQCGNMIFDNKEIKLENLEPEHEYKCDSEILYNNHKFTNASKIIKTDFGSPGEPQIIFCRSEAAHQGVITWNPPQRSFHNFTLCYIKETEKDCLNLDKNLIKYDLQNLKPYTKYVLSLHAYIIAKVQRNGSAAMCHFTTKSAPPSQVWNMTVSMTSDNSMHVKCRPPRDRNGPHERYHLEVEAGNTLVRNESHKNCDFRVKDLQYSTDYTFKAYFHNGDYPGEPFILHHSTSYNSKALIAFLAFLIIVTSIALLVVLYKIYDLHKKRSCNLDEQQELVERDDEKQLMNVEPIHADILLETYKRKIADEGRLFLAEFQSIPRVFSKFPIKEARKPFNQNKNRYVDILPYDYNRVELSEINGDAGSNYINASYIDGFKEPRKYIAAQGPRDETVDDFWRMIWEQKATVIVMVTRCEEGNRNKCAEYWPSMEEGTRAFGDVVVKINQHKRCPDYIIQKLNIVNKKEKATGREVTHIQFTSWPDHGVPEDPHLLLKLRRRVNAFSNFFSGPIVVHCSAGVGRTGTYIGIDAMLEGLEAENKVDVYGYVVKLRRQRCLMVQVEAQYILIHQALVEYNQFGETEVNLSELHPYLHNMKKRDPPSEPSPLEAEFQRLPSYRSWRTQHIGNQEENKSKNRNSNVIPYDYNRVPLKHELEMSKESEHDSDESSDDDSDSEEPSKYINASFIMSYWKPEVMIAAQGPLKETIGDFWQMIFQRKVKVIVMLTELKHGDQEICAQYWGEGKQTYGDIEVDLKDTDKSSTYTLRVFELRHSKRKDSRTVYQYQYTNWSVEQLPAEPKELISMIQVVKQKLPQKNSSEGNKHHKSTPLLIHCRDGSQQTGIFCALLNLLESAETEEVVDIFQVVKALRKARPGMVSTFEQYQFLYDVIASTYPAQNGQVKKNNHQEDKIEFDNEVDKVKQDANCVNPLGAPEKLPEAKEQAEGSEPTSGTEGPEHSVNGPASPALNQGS
Details: species or system Escherichia coli.

For a further data set, the target named is T2, Interstitial collagenase (Homo sapiens, UniProt P03956).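 Also: MMP-1 enzyme inhibition assay using a peptide substrate; in other assays of this panel Not Active means under 50% inhibition at 10 µM.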
T2 sequence (P03956 whole entry): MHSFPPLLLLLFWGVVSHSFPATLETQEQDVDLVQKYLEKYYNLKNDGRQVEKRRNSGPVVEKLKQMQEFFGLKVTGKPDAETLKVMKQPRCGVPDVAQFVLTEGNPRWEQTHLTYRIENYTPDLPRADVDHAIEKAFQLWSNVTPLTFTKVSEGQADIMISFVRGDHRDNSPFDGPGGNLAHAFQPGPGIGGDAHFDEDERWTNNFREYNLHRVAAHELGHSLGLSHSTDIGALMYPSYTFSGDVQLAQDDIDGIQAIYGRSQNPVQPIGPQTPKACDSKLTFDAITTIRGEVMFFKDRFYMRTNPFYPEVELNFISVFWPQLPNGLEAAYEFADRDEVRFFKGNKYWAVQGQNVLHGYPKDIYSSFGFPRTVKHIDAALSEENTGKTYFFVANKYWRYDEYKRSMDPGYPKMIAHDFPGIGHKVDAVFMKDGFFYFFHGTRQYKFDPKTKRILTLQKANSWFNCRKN
Briefly: biochemical. Type of data set: tissue-based, Rheumatoid synovial fibroblasts.

A further data set addresses Cytochrome P450 2C9 (Homo sapiens, UniProt P11712). The settings on record: bti-tn-5b1-4.
Data set [3] in a line: DRUGMATRIX: Glutamate, Kainate radioligand binding (ligand: [3H] Kainic acid). It counts as cell membranes, Rattus norvegicus, Wistar, Brain, Membrane. The note with it: Not Active = under 50% inhibition at 10 µM.
In a further data set the target is Mu-type opioid receptor (Homo sapiens, UniProt P35372). In words: DRUGMATRIX: Opiate mu (OP3, MOP) radioligand binding (ligand: [3H] Diprenorphine). It counts as cell membranes, CHO-K1, Membrane. The settings on record: cho-k1; Not Active = under 50% inhibition at 10 µM.
Sequence of Mu-type opioid receptor (P35372 whole entry): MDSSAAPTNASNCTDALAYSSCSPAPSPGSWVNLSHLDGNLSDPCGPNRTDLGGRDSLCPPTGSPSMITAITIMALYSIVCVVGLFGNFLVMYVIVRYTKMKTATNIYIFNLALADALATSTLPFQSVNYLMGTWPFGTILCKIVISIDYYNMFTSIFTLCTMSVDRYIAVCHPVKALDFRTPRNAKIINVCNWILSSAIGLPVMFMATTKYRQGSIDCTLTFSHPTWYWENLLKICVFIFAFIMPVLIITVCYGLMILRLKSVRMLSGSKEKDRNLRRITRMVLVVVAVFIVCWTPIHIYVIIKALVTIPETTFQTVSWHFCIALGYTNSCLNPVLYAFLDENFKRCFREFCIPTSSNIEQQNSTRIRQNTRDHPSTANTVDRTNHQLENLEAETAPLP

Sequence of D(3) dopamine receptor (P35462 whole entry): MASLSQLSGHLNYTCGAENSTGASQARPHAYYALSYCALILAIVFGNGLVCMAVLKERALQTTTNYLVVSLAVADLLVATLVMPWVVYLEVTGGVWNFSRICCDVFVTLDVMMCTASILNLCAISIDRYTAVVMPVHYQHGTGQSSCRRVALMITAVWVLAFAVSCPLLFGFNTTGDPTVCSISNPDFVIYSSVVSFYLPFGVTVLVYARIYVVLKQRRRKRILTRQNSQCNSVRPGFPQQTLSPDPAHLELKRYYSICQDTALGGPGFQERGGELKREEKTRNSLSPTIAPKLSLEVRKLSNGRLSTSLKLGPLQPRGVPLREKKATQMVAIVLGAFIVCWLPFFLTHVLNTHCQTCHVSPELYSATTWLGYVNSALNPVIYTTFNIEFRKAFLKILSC
Sequence of Cytochrome P450 2C9 (P11712 whole entry): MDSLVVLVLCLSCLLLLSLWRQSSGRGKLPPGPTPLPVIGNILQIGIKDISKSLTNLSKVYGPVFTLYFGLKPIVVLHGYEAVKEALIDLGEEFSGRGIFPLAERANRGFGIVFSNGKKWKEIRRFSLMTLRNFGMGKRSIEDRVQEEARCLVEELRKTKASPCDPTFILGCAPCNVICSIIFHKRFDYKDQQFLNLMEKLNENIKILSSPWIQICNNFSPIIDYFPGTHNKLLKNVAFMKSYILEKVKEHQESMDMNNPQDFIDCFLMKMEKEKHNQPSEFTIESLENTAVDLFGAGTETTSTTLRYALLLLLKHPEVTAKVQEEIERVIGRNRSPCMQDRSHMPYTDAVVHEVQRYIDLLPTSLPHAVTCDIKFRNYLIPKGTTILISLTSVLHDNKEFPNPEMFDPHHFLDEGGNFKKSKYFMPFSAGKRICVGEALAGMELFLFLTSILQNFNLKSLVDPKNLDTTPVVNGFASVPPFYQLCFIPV

Take NYSTATIN: the IC50 entry (in data set [1]; at D(3) dopamine receptor (cho); in data set [2]; on Interstitial collagenase; against Cytochrome P450 2C9; in data set [3]) was “Not Active” throughout. Besides, the inhibition constant Ki result (in data set [1]; at D(3) dopamine receptor (cho); in data set [2]; at Interstitial collagenase; at Cytochrome P450 2C9; in data set [3]) was “Not Active” each time.
For the molecule `CCCNCC(O)COc1ccccc1C(=O)CCc1ccccc1` (centres undefined) [PROPAFENONE], the IC50 result (in data set [1]; on D(3) dopamine receptor (cho); on Mu-type opioid receptor; in data set [2]; against Interstitial collagenase; in data set [3]) was “Not Active” each time. Also, the inhibition constant (Ki) entry in data set [1] and in data set [3] was “Not Active” in each case.
As to `COc1cc([C@@H]2c3cc4c(cc3[C@@H](O[C@@H]3O[C@@H]5CO[C@@H](C)O[C@H]5[C@H](O)[C@H]3O)[C@H]3COC(=O)[C@H]23)OCO4)cc(OC)c1O` [ETOPOSIDE], the IC50 entry (in data set [1]; at D(3) dopamine receptor (cho); on Mu-type opioid receptor; in data set [2]; at Interstitial collagenase; in data set [3]) was “Not Active” throughout. For the same molecule, the inhibition constant (Ki) entry in data set [1] and in data set [3] was “Not Active” each time.
Consider `O=C(c1ccccc1C(F)(F)F)N1CCC(Cc2ccccc2)CC1`, for which the IC50 entry (in data set [1]; on D(3) dopamine receptor (cho); at Mu-type opioid receptor; in data set [2]; against Interstitial collagenase; in data set [3]) was “Not Active” in each case. For the same molecule, the inhibitory constant (Ki) entry in data set [1] and in data set [3] was “Not Active” each time.
Take `CC(C)(C)NC(=O)[C@H]1CC[C@H]2[C@@H]3CC[C@H]4NC(=O)C=C[C@]4(C)[C@H]3CC[C@]12C` [FINASTERIDE]: the IC50 result (in data set [1]; at D(3) dopamine receptor (cho); on Mu-type opioid receptor; in data set [2]; on Interstitial collagenase; in data set [3]) was “Not Active” in each case. Besides, the Ki entry in data set [1] and in data set [3] was “Not Active” each time.
In the case of GRAMICIDIN, the IC50 result (in data set [1]; on D(3) dopamine receptor (cho); in data set [2]; against Interstitial collagenase; against Cytochrome P450 2C9; in data set [3]) was “Not Active” each time. Also, the inhibition constant (Ki) entry (in data set [1]; on D(3) dopamine receptor (cho); in data set [2]; on Interstitial collagenase; on Cytochrome P450 2C9; in data set [3]) was “Not Active” each time.
As to `CC(=O)[C@@]1(O)CC[C@H]2[C@@H]3CCC4=CC(=O)CC[C@]4(C)[C@H]3CC[C@@]21C` [HYDROXYPROGESTERONE], the IC50 result (in data set [1]; on D(3) dopamine receptor (cho); at Mu-type opioid receptor; in data set [2]; on Interstitial collagenase; in data set [3]) was “Not Active” throughout. In addition, the inhibition constant Ki result in data set [1] and in data set [3] was “Not Active” throughout.
Regarding `O=C/C=C/c1ccccc1`, the half-inhibitory concentration (IC50) entry (in data set [1]; on D(3) dopamine receptor (cho); in data set [2]; against Interstitial collagenase; against Cytochrome P450 2C9; in data set [3]) was “Not Active” in each case. The Ki result (in data set [1]; on Cytochrome P450 2C9; in data set [3]) was “Not Active” throughout.
As for `C[C@@H](CO)NC(=O)[C@@H]1C=C2c3cccc4[nH]cc(c34)C[C@H]2N(C)C1` [ERGONOVINE], the IC50 (in general, the point on the concentration scale where inhibition reaches its midpoint) in data set [1] was “Not Active”; at D(3) dopamine receptor (read-out: IC50), 567 nM; in data set [2] it was “Not Active”; against Interstitial collagenase, “Not Active”; on Cytochrome P450 2C9, “Not Active”; in data set [3], “Not Active”. The inhibitory constant (Ki) (usually a measure of affinity in units of concentration, obtained from inhibition or displacement) in data set [1] is “Not Active”; at D(3) dopamine receptor (read-out: Ki) it was 193 nM; on Cytochrome P450 2C9 it was “Not Active”; in data set [3], “Not Active”.
Consider GENTAMICIN, for which the IC50 result (in data set [1]; on D(3) dopamine receptor (cho); in data set [2]; on Interstitial collagenase; against Cytochrome P450 2C9; in data set [3]) was “Not Active” throughout. Moreover, the inhibition constant Ki result (in data set [1]; at D(3) dopamine receptor (cho); in data set [2]; on Interstitial collagenase; on Cytochrome P450 2C9; in data set [3]) was “Not Active” throughout.
As for `C[C@@H]1O[C@@H](O[C@@H]2C=C3CC[C@@H]4[C@H](CC[C@]5(C)[C@@H](c6ccc(=O)oc6)CC[C@]45O)[C@@]3(C)CC2)[C@H](O)[C@H](O)[C@H]1O` [PROSCILLARIDIN], the half-maximal inhibitory concentration (IC50) result (in data set [1]; on D(3) dopamine receptor (cho); in data set [2]; against Interstitial collagenase; in data set [3]) was “Not Active” throughout. The Ki result in data set [1] and in data set [3] was “Not Active” each time.
As for `C[n+]1ccc(-c2cc[n+](C)cc2)cc1.[Cl-].[Cl-]` [PARAQUAT DICHLORIDE], the IC50 result (in data set [1]; at D(3) dopamine receptor (cho); in data set [2]; at Interstitial collagenase; at Cytochrome P450 2C9; in data set [3]) was “Not Active” in each case. For the same molecule, the inhibition constant Ki result (in data set [1]; at Cytochrome P450 2C9; in data set [3]) was “Not Active” in each case.
GADOPENTETATE DIMEGLUMINE: the concentration for half-maximal inhibition (IC50) result (in data set [1]; on D(3) dopamine receptor (cho); in data set [2]; against Interstitial collagenase; against Cytochrome P450 2C9; in data set [3]) was “Not Active” each time. The Ki result (in data set [1]; at D(3) dopamine receptor (cho); in data set [2]; at Interstitial collagenase; at Cytochrome P450 2C9; in data set [3]) was “Not Active” throughout.
Turning to AURANOFIN, the 50% inhibitory concentration (IC50) entry in data set [1] was “Not Active”; on D(3) dopamine receptor (cho, read-out: IC50) it was 659 nM; in data set [2], “Not Active”; against Interstitial collagenase it was “Not Active”; against Cytochrome P450 2C9 it was “Not Active”; in data set [3], “Not Active”. Moreover, the Ki result is “Not Active” in data set [1]; 224 nM at D(3) dopamine receptor (cho, read-out: Ki); “Not Active” in data set [2]; “Not Active” on Interstitial collagenase; “Not Active” on Cytochrome P450 2C9; “Not Active” in data set [3].
As for `Cc1nnc2n1-c1ccc(Cl)cc1C(c1ccccc1)=NC2` [ALPRAZOLAM], the half-inhibitory concentration (IC50) result (in data set [1]; at D(3) dopamine receptor (cho); in data set [2]; against Interstitial collagenase; at Cytochrome P450 2C9; in data set [3]) was “Not Active” each time. Also, the inhibitory constant (Ki) entry (in data set [1]; at Cytochrome P450 2C9; in data set [3]) was “Not Active” each time.
